Assay results reported in ChEMBL document CHEMBL1136622, “Discovery of the first antibacterial small molecule inhibitors of MurB” (Bioorg Med Chem Lett, 2003).
In brackets after ≈: the same amount, converted by molar mass.

Assays:
[1] = In vitro inhibitory concentration required against Mur B enzyme was determined; set-up: species or system Staphylococcus aureus
Staphylococcus aureus = test: Antibacterial activity against Staphylococcus aureus A9537; format: functional

| IC50 [1] | MIC (Staphylococcus aureus) | SMILES |
| --- | --- | --- |
| > 101 µM | – | CCCC[C@@H](C(=O)OC)n1c(-c2cccc(Oc3ccc(C(C)(C)C)cc3)c2)cn(CC(=O)O)c1=O |
| 40 µM | 4 µg/mL (≈ 8.65 µM) | C=CCn1cc(-c2cccc(Oc3ccc(C(C)(C)C)cc3)c2)n([C@@H](CCCC)C(=O)O)c1=O |

The next lines start with the molecule.

| SMILES | IC50 [1] | MIC (Staphylococcus aureus) |
| --- | --- | --- |
| CCCC[C@@H](C(=O)O)n1c(-c2cccc(Oc3ccc(C(C)(C)C)cc3)c2)cnc1O | > 118 µM | – |
| CCCC[C@@H](C(=O)O)n1c(-c2cccc(Oc3ccc(C(C)(C)C)cc3)c2)cn(Cc2ccccc2)c1=O | 16 µM | 2 µg/mL (≈ 3.9 µM) |
| CCCC[C@@H](C(=O)O)n1c(-c2cccc(Oc3ccc(C(C)(C)C)cc3)c2)cn(CC(=O)NCCc2ccccc2Cl)c1=O | 25 µM | 4 µg/mL (≈ 6.47 µM) |
| CCCC[C@@H](C(=O)O)N1C(=O)C(CC(=O)NCCc2ccccc2Cl)SC1c1cccc(Oc2ccc(C(C)(C)C)cc2)c1 (some centres not stated) | 12 µM | – |
| CCCC[C@@H](C(=O)O)n1c(-c2cccc(Oc3ccc(C(C)(C)C)cc3)c2)cn(C)c1=O | > 115 µM | – |
| CCCC[C@@H](C(=O)O)n1c(-c2cccc(Oc3ccc(C(C)(C)C)cc3)c2)cn(CC(=O)NCc2ccc(Cl)c(Cl)c2)c1=O | 15 µM | 4 µg/mL (≈ 6.26 µM) |
